{"source": "patent US20240423984A1", "about": "“COMBINATION THERAPIES OF KRAS G12D INHIBITORS WITH SHP-2 INHIBITORS” (MIRATI THERAPEUTICS, INC., priority 2021, published 2024)", "assay_type_in_all_cases": "in vivo, nude/nude mice", "key": {"[1]": {"system": "LS180 cells", "test": "LS180 colon cancer xenograft tumor volume", "conditions": "for Average Tumor Volumes: LS180 tumor bearing mice, TNO155 10 mg/kg BID Daily", "protocol": "(§1) Immunocompromised nude/nude mice are inoculated in the right hind flank with cells harboring a KRas G12D mutation. When tumor volumes reach between 200-400 mm^3 in size, the mice are divided into four to five groups of 5 mice each. The first group is administered vehicle only. […] The fourth group is administered the single agent dose of the KRas G12D inhibitor using the twice daily for 2 sequential days followed by 5 days off schedule in combination with the single agent dose of the SHP-2 inhibitor. The treatment period varies from cell line to cell line but typically is between 15-28-days. Tumor volumes are measured using a caliper every two three days and tumor volumes are calculated by the formula: […].\n(§2) 20 to 25 nude/nude mice per study were inoculated in the right hind limb with 5×10^6 LS180 cells, GP2D cells, Panc 02.03 cells, or AsPC-1 cells. When tumor volumes reached ˜200 mm^3-400 mm3 (study day 0) 5 mice in each of the groups were administered i.p. vehicle only (10% captisol in 50 mM citrate buffer pH 5.0), 30 mg/kg of Kras G12) inhibitor MRTX1133 (10% captisol in 50 mM citrate buffer, pH 5.0) either on the twice daily schedule or the twice daily for 2 consecutive days followed by 5 days off schedule, 10 mg/kg twice daily of the TNO-155 (0.5% methylcellulose and 0.1% Tween 80 in water) SHP2 inhibitor or 30 mg/kg once daily of the RMC-4550 (10% captisol in 50 mM citrate buffer pH 5.0) SHP2 inhibitor, or 30 mg/kg of Kras G12D inhibitor on either schedule and either TNO-155 or RMC-4550. Tumor volumes, measured at pre-specified days, for the five mice per group were averaged and are reported for LS180, GP2D, Panc 02.03, and AsPC-1 in Tables 2, 3, 4 and 5, respectively.\n25 nude/nude mice were inoculated with LS180 cells in the right hind flank. When the tumors reached ˜250 mm^3 five treatment groups were established with five mice per group."}, "[2]": {"system": "Panc 02.03 cells", "test": "Panc 02.03 pancreatic cancer xenograft tumor volume", "conditions": "for Average Tumor Volumes: Panc 02.03 tumor bearing mice", "protocol": "as §1, §2\nExperimental Procedures. 25 nude/nude mice were inoculated with Panc 02.03 cells in the right hind flank. When the tumors reached ˜300 mm^3 four treatment groups were established with five mice per group."}, "[3]": {"system": "AsPC-1 cells", "test": "AsPC-1 pancreatic cancer xenograft tumor volume", "conditions": "for Average Tumor Volumes: AsPC-1 tumor bearing mice", "protocol": "as §1, §2\nExperimental Procedures. 20 nude/nude mice were inoculated with AsPC-1 cells in the right hind flank. When the tumors reached ˜200 mm^3 four treatment groups were established with five mice per group."}, "[4]": {"system": "GP2D cells", "test": "GP2D colon cancer xenograft tumor volume", "conditions": "for Average Tumor Volumes: GP2D TGI-38 tumor bearing mice", "protocol": "as §1, §2\n20 nude/nude mice were inoculated with GP2D cells in the right hind flank. When the tumors reached ˜300 mm^3 four treatment groups were established with five mice per group."}, "[5]": {"conditions": "TNO155 10 mg/kg BID Daily, Study Day 1"}, "[6]": {"conditions": "MRTX1133 30 mg/kg BID Daily, Study Day 1"}}}
{"molecule": "C[C@@H]1OCC2(CCN(c3cnc(Sc4ccnc(N)c4Cl)c(N)n3)CC2)[C@@H]1N", "note": "[TNO155]", "values": [{"measurement": "tumor growth inhibition", "setting": "[1]; LS180, TNO155 10 mg/kg BID daily, single agent, Day 15", "result": 48, "unit": "%"}, {"measurement": "Average Tumor Volumes", "setting": "[1]; Study Day 1", "result": 272.732, "unit": "mm^3"}, {"measurement": "Average Tumor Volumes", "setting": "[1]; Study Day 4", "result": 568.234, "unit": "mm^3"}, {"measurement": "Average Tumor Volumes", "setting": "[1]; Study Day 8", "result": 888.474, "unit": "mm^3"}, {"measurement": "Average Tumor Volumes", "setting": "[1]; Study Day 11", "result": 1009.462, "unit": "mm^3"}, {"measurement": "Average Tumor Volumes", "setting": "[1]; Study Day 15", "result": 1155.8525, "unit": "mm^3"}, {"measurement": "tumor growth inhibition", "setting": "[2]; Panc 02.03, TNO155 10 mg/kg BID daily, single agent, Day 22", "result": 58, "unit": "%"}, {"measurement": "Average Tumor Volumes", "setting": "[2]; [5]", "result": 330.644, "unit": "mm^3"}, {"measurement": "Average Tumor Volumes", "setting": "[2]; TNO155 10 mg/kg BID Daily, Study Day 4", "result": 365.57, "unit": "mm^3"}, {"measurement": "Average Tumor Volumes", "setting": "[2]; TNO155 10 mg/kg BID Daily, Study Day 8", "result": 469.4, "unit": "mm^3"}, {"measurement": "Average Tumor Volumes", "setting": "[2]; TNO155 10 mg/kg BID Daily, Study Day 11", "result": 522.856, "unit": "mm^3"}, {"measurement": "Average Tumor Volumes", "setting": "[2]; TNO155 10 mg/kg BID Daily, Study Day 15", "result": 571.16, "unit": "mm^3"}, {"measurement": "Average Tumor Volumes", "setting": "[2]; TNO155 10 mg/kg BID Daily, Study Day 18", "result": 622.47, "unit": "mm^3"}, {"measurement": "Average Tumor Volumes", "setting": "[2]; TNO155 10 mg/kg BID Daily, Study Day 22", "result": 657.502, "unit": "mm^3"}, {"measurement": "tumor growth inhibition", "setting": "[3]; AsPC-1, TNO155 10 mg/kg BID daily, single agent, Day 23", "result": 0, "unit": "%"}, {"measurement": "Average Tumor Volumes", "setting": "[3]; [5]", "result": 192.408, "unit": "mm^3"}, {"measurement": "Average Tumor Volumes", "setting": "[3]; TNO155 10 mg/kg BID Daily, Study Day 6", "result": 262.654, "unit": "mm^3"}, {"measurement": "Average Tumor Volumes", "setting": "[3]; TNO155 10 mg/kg BID Daily, Study Day 9", "result": 263.966, "unit": "mm^3"}, {"measurement": "Average Tumor Volumes", "setting": "[3]; TNO155 10 mg/kg BID Daily, Study Day 13", "result": 301.71, "unit": "mm^3"}, {"measurement": "Average Tumor Volumes", "setting": "[3]; TNO155 10 mg/kg BID Daily, Study Day 16", "result": 317.812, "unit": "mm^3"}, {"measurement": "Average Tumor Volumes", "setting": "[3]; TNO155 10 mg/kg BID Daily, Study Day 20", "result": 360.412, "unit": "mm^3"}, {"measurement": "Average Tumor Volumes", "setting": "[3]; TNO155 10 mg/kg BID Daily, Study Day 23", "result": 456.218, "unit": "mm^3"}]}
{"molecule": "Cc1nc(N2CCC3(CC2)CO[C@@H](C)[C@H]3N)c(CO)nc1-c1cccc(Cl)c1Cl", "note": "[RMC-4550, (3-((3S,4S)-4-amino-3-methyl-2-oxa-8-azaspiro[4.5]decan-8-yl)-6-(2,3-dichlorophenyl)-5-methylpyrazin-2-yl)methanol]", "values": [{"measurement": "Average Tumor Volumes", "setting": "[4]; RMC-4550 30 mg/kg Once Daily, Study Day 1", "result": 300.014, "unit": "mm^3"}, {"measurement": "Average Tumor Volumes", "setting": "[4]; RMC-4550 30 mg/kg Once Daily, Study Day 7", "result": 353.148, "unit": "mm^3"}, {"measurement": "Average Tumor Volumes", "setting": "[4]; RMC-4550 30 mg/kg Once Daily, Study Day 10", "result": 398.576, "unit": "mm^3"}, {"measurement": "Average Tumor Volumes", "setting": "[4]; RMC-4550 30 mg/kg Once Daily, Study Day 14", "result": 497.714, "unit": "mm^3"}, {"measurement": "Average Tumor Volumes", "setting": "[4]; RMC-4550 30 mg/kg Once Daily, Study Day 17", "result": 530.072, "unit": "mm^3"}, {"measurement": "Average Tumor Volumes", "setting": "[4]; RMC-4550 30 mg/kg Once Daily, Study Day 21", "result": 567.882, "unit": "mm^3"}, {"measurement": "Average Tumor Volumes", "setting": "[4]; RMC-4550 30 mg/kg Once Daily, Study Day 26", "result": 685.836, "unit": "mm^3"}, {"measurement": "Average Tumor Volumes", "setting": "[4]; RMC-4550 30 mg/kg Once Daily, Study Day 28", "result": 807.148, "unit": "mm^3"}, {"measurement": "Average Tumor Volumes", "setting": "[4]; RMC-4550 30 mg/kg Once Daily, Study Day 31", "result": 970.626, "unit": "mm^3"}, {"measurement": "Average Tumor Volumes", "setting": "[4]; RMC-4550 30 mg/kg Once Daily, Study Day 35", "result": 1027.032, "unit": "mm^3"}, {"measurement": "tumor growth inhibition", "setting": "[4]; GP2D, RMC-4550 30 mg/kg QD, single agent, Day 35", "result": 56, "unit": "%"}]}
{"molecule": "C#Cc1c(F)ccc2cc(O)cc(-c3ncc4c(N5C[C@H]6CC[C@@H](C5)N6)nc(OC[C@@]56CCCN5C[C@H](F)C6)nc4c3F)c12", "note": "[MRTX1133, 4-(4-((1R,5S)-3,8-diazabicyclo[3.2.1]octan-3-yl)-8-fluoro-2-(((2R,7aS)-2-fluorohexahydro-1H-pyrrolizin-7a-yl)methoxy)pyrido[4,3-d]pyrimidin-7-yl)-5-ethynyl-6-fluoronaphthalen-2-ol]", "values": [{"measurement": "Average Tumor Volumes", "setting": "[4]; MRTX1133 30 mg/kg BID Daily, Study Day 31", "result": 333.196, "unit": "mm^3"}, {"measurement": "tumor regression", "setting": "[2]; Panc 02.03, MRTX1133 30 mg/kg BID, daily administration, single agent, Day 22", "result": "−33", "unit": "%"}, {"measurement": "Average Tumor Volumes", "setting": "[2]; [6]", "result": 329.056, "unit": "mm^3"}, {"measurement": "Average Tumor Volumes", "setting": "[2]; MRTX1133 30 mg/kg BID Daily, Study Day 4", "result": 282.836, "unit": "mm^3"}, {"measurement": "Average Tumor Volumes", "setting": "[2]; MRTX1133 30 mg/kg BID Daily, Study Day 8", "result": 208.15, "unit": "mm^3"}, {"measurement": "Average Tumor Volumes", "setting": "[2]; MRTX1133 30 mg/kg BID Daily, Study Day 11", "result": 189.782, "unit": "mm^3"}, {"measurement": "Average Tumor Volumes", "setting": "[2]; MRTX1133 30 mg/kg BID Daily, Study Day 15", "result": 205.992, "unit": "mm^3"}, {"measurement": "Average Tumor Volumes", "setting": "[2]; MRTX1133 30 mg/kg BID Daily, Study Day 18", "result": 227.806, "unit": "mm^3"}, {"measurement": "Average Tumor Volumes", "setting": "[2]; MRTX1133 30 mg/kg BID Daily, Study Day 22", "result": 220.912, "unit": "mm^3"}, {"measurement": "tumor regression", "setting": "[3]; AsPC-1, MRTX1133 30 mg/kg BID daily, single agent, Day 23", "result": "−28", "unit": "%"}, {"measurement": "Average Tumor Volumes", "setting": "[3]; [6]", "result": 193.378, "unit": "mm^3"}, {"measurement": "Average Tumor Volumes", "setting": "[3]; MRTX1133 30 mg/kg BID Daily, Study Day 6", "result": 168.124, "unit": "mm^3"}, {"measurement": "Average Tumor Volumes", "setting": "[3]; MRTX1133 30 mg/kg BID Daily, Study Day 9", "result": 146.75, "unit": "mm^3"}, {"measurement": "Average Tumor Volumes", "setting": "[3]; MRTX1133 30 mg/kg BID Daily, Study Day 13", "result": 143.612, "unit": "mm^3"}, {"measurement": "Average Tumor Volumes", "setting": "[3]; MRTX1133 30 mg/kg BID Daily, Study Day 16", "result": 120.916, "unit": "mm^3"}, {"measurement": "Average Tumor Volumes", "setting": "[3]; MRTX1133 30 mg/kg BID Daily, Study Day 20", "result": 119.264, "unit": "mm^3"}, {"measurement": "Average Tumor Volumes", "setting": "[3]; MRTX1133 30 mg/kg BID Daily, Study Day 23", "result": 139.296, "unit": "mm^3"}]}
